Patent US10961238B2, “Modulators of hedgehog (Hh) signaling pathway” (E-THERAPEUTICS PLC, priority 2016, dated 2021)

test system: C3H10T1/2 cells; assay: C3H assay: differentiation of C3H10T1/2 cells by mSHH, measurement of alkaline phosphatase; assay type: cell-based, mouse; details: Mus musculus, C3H 10T1/2; C3H10T1/2 cells stimulated with mSHH for 72 hours; alkaline phosphatase activity; read-out: IC50 Ranges

Compound	IC50 [nM]
COC(=O)c1coc(N2CC(S(=O)(=O)N3CCC(c4c[nH]c5ncccc45)CC3)C2)n1 [Compound 246, methyl 2-[3-[4-(1H-pyrrolo[2,3-b]pyridin-3-yl)piperidin-1-yl]sulfonylaze-tidin-1-yl]-1,3-oxazole-4-carboxylate]	100 to 1000
CN(C)CC1(CN2CC(S(=O)(=O)N3CCC(c4c[nH]c5ncccc45)CC3)C2)CCCC1 [Compound 247, N,N-dimethyl-1-[1-[[3-[4-(1H-pyrrolo[2,3-b]pyridin-3-yl)piperidin-1-yl]sulfonylaze-tidin-1-yl]methyl]cyclopentyl] methanamine]	1000 to 10000
CC(C)[C@H](CO)NC(=O)N1CC(S(=O)(=O)N2CCC(c3c[nH]c4ncccc34)CC2)C1 [Compound 251, N-[(2R)-1-hydroxy-3-methylbutan-2-yl]-3-[4-(1H-pyrrolo[2,3-b]pyridin-3-yl)piperidin-1-yl]sulfonylaze-tidine-1-carboxamide]	10 to 100
COc1ccnc(N2CC(S(=O)(=O)N3CCC(c4c[nH]c5ncccc45)CC3)C2)c1C#N [Compound 252, 4-methoxy-2-[3-[4-(1H-pyrrolo [2,3-b]pyridin-3-yl)piperidin-1-yl]sulfonylaze-tidin-1-yl]pyridine-3-carbonitrile]	100 to 1000
O=S(=O)(C1CN(c2ncccc2F)C1)N1CCC(c2c[nH]c3ncccc23)CC1 [Compound 253, 3-[1-[1-(3-fluoropyridin-2-yl)azetidin-3-yl]sulfonylpiper-idin-4-yl]-1H-pyrrolo[2,3-b]pyridine]	10 to 100
Cc1cccnc1N1CC(S(=O)(=O)N2CCC(c3c[nH]c4ncccc34)CC2)C1 [Compound 254, 3-[1-[1-(3-methylpyridin-2-yl)azetidin-3-yl]sulfonylpiper-idin-4-yl]-1H-pyrrolo[2,3-b]pyridine]	10 to 100
CC(C)(O)c1cccnc1N1CC(S(=O)(=O)N2CCC(c3c[nH]c4ncccc34)CC2)C1 [Compound 255, 2-[2-[3-[4-(1H-pyrrolo[2,3-b]pyridin-3-yl)piperidin-1-yl]sulfonylaze-tidin-1-yl]pyridin-3-yl]propan-2-ol]	10 to 100
Cc1ccnc(N2CC(S(=O)(=O)N3CCC(c4c[nH]c5ncccc45)CC3)C2)c1 [Compound 257, 3-[1-[1-(4-methylpyridin-2-yl)azetidin-3-yl]sulfonylpiper-idin-4-yl]-1H-pyrrolo[2,3-b]pyridine]	10 to 100
N#Cc1ccnc(N2CC(S(=O)(=O)N3CCC(c4ccncc4)CC3)C2)c1 [Compound 258, 2-[3-(4-pyridin-4-ylpiperidin-1-yl)sulfonylaze-tidin-1-yl]pyridine-4-carbonitrile]	1000 to 10000

Further lines, results first:

IC50 [nM]	Compound
1000 to 10000	O=S(=O)(C1CN(c2ncccc2CO)C1)N1CCC(c2ccncc2)CC1 [Compound 259, [2-[3-(4-pyridin-4-ylpiperidin-1-yl)sulfonylaze-tidin-1-yl]pyridin-3-yl]methanol]
1000 to 10000	CCOC(=O)c1coc(N2CC(S(=O)(=O)N3CCC(c4ccncc4)CC3)C2)n1 [Compound 260, ethyl 2-[3-(4-pyridin-4-ylpiperidin-1-yl)sulfonylaze-tidin-1-yl]-1,3-oxazole-4-carboxylate]
1000 to 10000	NC(=O)c1coc(N2CC(S(=O)(=O)N3CCC(c4ccncc4)CC3)C2)n1 [Compound 261, 2-[3-[[4-(4-pyridyl)-1-piperidyl]sulfonyl]azetidin-1-yl]oxazole-4-carboxamide]
100 to 1000	Cc1noc(C)c1NC(=O)N1CC(S(=O)(=O)N2CCC(c3ccncc3)CC2)C1 [Compound 262, N-(3,5-dimethyl-1,2-oxazol-4-yl)-3-(4-pyridin-4-ylpiperidin-1-yl)sulfonylaze-tidine-1-carboxamide]
100 to 1000	CC[C@@H](C)OC(=O)N1CC(S(=O)(=O)N2CCC(c3ccncc3)CC2)C1 [Compound 263, [(2R)-butan-2-yl]3-(4-pyridin-4-ylpiperidin-1-yl)sulfonylaze-tidine-1-carboxylate]
100 to 1000	O=C(OC1CCCCC1)N1CC(S(=O)(=O)N2CCC(c3ccncc3)CC2)C1 [Compound 264, cyclohexyl 3-(4-pyridin-4-ylpiperidin-1-yl)sulfonylaze-tidine-1-carboxylate]
